Test results published in ChEMBL document CHEMBL1152076, “Alteration of Na+ permeability in human erythrocytes as studied by 23Na-NMR and inhibition of the kidney Na+,K+-ATPase activities with saponins: Interaction of Gleditsia saponins with human erythrocyte membranes” (Bioorg Med Chem Lett, 1995).

Biological target: Sodium/potassium-transporting ATPase (Rattus norvegicus)
Test: Inhibitory activity against rat kidney Na+/K+ ATPase was determined by fiske subbarow method

## C=C[C@@](C)(O)CC/C=C(\C)C(=O)OC1C(COCCCC2OC(CCCOOC(=O)C34CCC(C)(C)CC3C3=CCC5[C@@]6(C)CCC(OC7OC(CCOCCC8OCC(O)C(O)C8OC8OCC(O)C(O)C8O)C(O)C(O)C7O)C(C)(C)C6CC[C@@]5(C)[C@]3(C)C[C@H]4O)C(OCC3OC(C)C(OCCCCCCCCC4OCC(O)C(OC5OCC(O)C(O)C5O)C4O)C(O)C3O)C(O)C2O)OC(C)C(O)C1OC(=O)/C(=C/CC[C@](C)(O)C=C)CO (stereo partly specified)
  IC50: 400 µM
